Target: PA-IL (lectin A, Lec A) (Pseudomonas aeruginosa, UniProt Q05097)
Experiment: Lectin histochemistry: D-galactose blocking of biotinylated PA-IL binding to human respiratory epithelia, in relation to storage time of the sugar solution
Settings: for PA-IL lectin binding at the cilia of human respiratory epithelia in presence of D-galactose: 5 μg/ml PA-IL
Experimental: Tissue preparation and lectin histological staining has been described (Schreiber et al. (2014) Anticancer Res. 34 (12): 7045-53). Five μm thick sections of human airway epithelium were applied to Adhesion Micro Slides (Histo Bond®; Marienfeld GmbH, Lauda-Königshofen Germany). Slides were deparaffinized and rehydrated through a series of graded ethanol to distilled water. […] Deparaffinized sections were briefly incubated in lectin buffer (LB) consisting of tris-buffered saline (TBS contained Trizma Base, 50 mM Tris; Sigma, Steinheim, Germany), sodium chloride (150 mM; J. T. Baker, Deventer, the Netherlands) and hydrochloric acid (Merck, Darmstadt, Germany) in distilled water (adjusted to pH 7.6) with addition of 1% MgCl2 and 1% CaCl2) (Merck, Darmstadt Germany). Sections were then treated with 0.1% trypsin (Biochrom KG, Berlin, Germany) dissolved in LB and incubated for 10 min at 37° C. To stop the digestion of the sections with trypsin, the sections were washed in running tap water for 5 min. […] This step was followed by three washes (5 min each) in TBS. Afterwards the sections were incubated with alkaline phosphatase streptavidin complex (Vectastain® ABC-Kit; Vector Laboratories) in a humid chamber for 30 min. After final three rinsings (5 min each) in TBS, sections were transferred into the visualizing mixture containing naphthol-AS-biphosphate, hexatozised new fuchsin, dimethylformamide and tween 20 (all from Sigma-Aldrich Chemie, Darmstadt, Germany) applied in the dark for 20 min to visualize enzyme reactivity. To stop the enzyme reaction, the sections were washed in running tap water (7 min) and were then transferred into distilled water (2 min). Counterstaining was performed using Mayer's hemalum (Merck). The sections were dehydrated and subsequently covered using a resinous permanent mounting medium (Eukitt, Kindler GmbH, Freiburg, Germany). Slides were first evaluated using a ZEISS Axiophot 2 microscope (Carl Zeiss, Jena, Germany). Digital images were obtained with a ZEISS Axio Scan Z1 slide scanner equipped with a ZEISS EC Plan-Neofluar 20×/0.50 Pol M27 objective (Carl Zeiss, Jena, Germany) and a Hitachi HV-F20SCL camera with 1600×1200 pixels (Hitachi Kokusai Electric America Ltd., New York, USA). For image acquisition ZEISS ZEN 2.3 software was used (Carl Zeiss, Jena, Germany). Images were further processed with netScope Viewer software (Net-Base Software, Freiburg, Germany).
For the PA-IL blocking experiments, 10 μg/ml PA-IL solution dissolved in LB was incubated 1:1 with a freshly prepared D-galactose solution (Merck, Darmstadt) for 30 min resulting in a final 5 μg/ml PA-IL solution before applying the mixture to the sections. The final concentration of D-galactose in solution ranged from 0.3 mM to 0.0375 mM D-galactose.
To analyze the loss of D-galactose activity to block PA-IL tissue binding in relation to storage time in an aqueous solution, D-galactose was dissolved in water and then stored for different durations (for 0, 40, 80, 160, 320 minutes as well as 12 and 24 h). After storage D-galactose was mixed with the PA-IL solution and used to incubate human respiratory epithelial tissue samples as described previously.

Sequence of PA-IL (lectin A, Lec A) (Q05097 whole entry): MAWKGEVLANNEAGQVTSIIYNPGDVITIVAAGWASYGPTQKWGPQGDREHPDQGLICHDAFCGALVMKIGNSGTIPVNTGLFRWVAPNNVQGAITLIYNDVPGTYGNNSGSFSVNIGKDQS

## O=C[C@H](O)[C@@H](O)[C@@H](O)[C@H](O)CO [D-galactose]
0.0375 mM D-galactose stored 80 minutes in water, FIG. 8
  PA-IL lectin binding at the cilia of human respiratory epithelia in presence of D-galactose: significantly reduced, but not completely abolished
After 80 minutes storage time in aqueous solution
  PA-IL blocking activity of aqueous D-galactose solution: nearly abolished
Freshly dissolved 0.0375 mM D-galactose, time point 0, FIG. 7
  PA-IL lectin binding at the cilia of human respiratory epithelia in presence of D-galactose: abolished
Freshly prepared solution
  PA-IL blocking efficacy of aqueous D-galactose solution: significant blocking activity
Storage in aqueous solution
  period of storage in aqueous solution over which PA-IL blocking efficacy is lost: approximately 80 minutes

— patent publication US20260166065A1 (priority 2023, published 2026)
